Legend:
PINK1^5 flies = assay: PINK1^5 fly genetic model of PD; type: in vivo, Drosophila; conditions: TZ day 1 after hatching to day 10
Description: N=6, with 80 flies for each treatment in each trial. […] N=3, with 100 flies for each treatment in each trial. […] N=6, with 100 flies for each treatment in each trial. […] Data are from individual groups of flies (A-F) and individual mice (I-K). Bars and whiskers indicate mean±SEM. […] In the figures, *p<0.05, **p<0.01, ***p<0.001. For panel D, the statistical analysis was 1-way ANOVA with Tukey, and for all other panels, a Kruskal-Wallis with a Dwass-Steele-Critchlow-Fligner.
A genetic model of PD in PINK1^5 flies. […] N=3, with 100 flies for each treatment in each trial.

patients with PD = assay: Analysis of the PPMI database (MDS-UPDRS Part 3 motor progression); type: in vivo, human; conditions: for rate of motor function decline / progression of motor disability: PPMI database, vs controls; for MDS-UPDRS Part 3 Slope of change/month, mean ± S.E.: PPMI, male PD patients, baseline to ~1 year
Description: FIG. 7. TZ and related drugs slow progression of motor defects for patients with PD enrolled in the PPMI database. MDS-UPDRS Part 3 (motor) scores of PD patients in the PPMI database. Patients were taking TZ/DZ/AZ (blue, N=13), tamsulosin (green, N=24), or neither (red, N=269). Data are scores at entry into PPMI through ˜1 year and include all measures between those times. All patients taking these drugs were males prescribed TZ/DZ/AZ or tamsulosin without breaks for benign prostatic hyperplasia or undefined urological problems. Lines are plotted from linear mixed effect regression analyses. By maximum likelihood estimation, TZ/DZ/AZ differed from controls (P=0.012).
FIG. 18. UPDRS scores for 13 patients with PD taking TZ/DZ/AZ. Each set of data points and lines indicates an individual patient. Bold line and shading indicate the linear regression line and 95% confidence intervals for the 13 patients. See legend of FIG. 7 for more information.
We analyzed data from the PPMI database (21) for patients taking TZ alone, TZ/DZ/AZ, or tamsulosin. We tested if these drugs influenced the rate of motor progression as measured by part III of the Movement Disorder Society's Unified Parkinson's Disease Rating Scale ([…]), which is a metric of motor disability in Parkinson's disease (22). For this analysis, only participants who were using TZ/DZ/AZ or tamsulosin at their baseline PPMI visit were included in the drug groups. PPMI protocol dictates that the fourth visit should occur approximately one year after the baseline visit; accordingly, any visit that occurred between the baseline visit and the fourth PPMI visit were included. Participants also had to have more than one visit to be included. Of the 13 participants in the TZ/DZ/AZ group, 11 were taking the medication-of-interest without breaks until their fourth visit. One participant was taking DZ at the time of their baseline visit, but discontinued within 30 days of their baseline visit. That participant was only considered to be using DZ during their first and second visits. Another participant was using AZ at their baseline visit and for approximately 5 months after that. This participant was considered to be taking AZ during their first and second visits. If these two participants were excluded from the analysis and only participants who were taking the medication-of-interest without breaks in therapy were included, the results change only marginally. The TZ/DZ/AZ group (n=11) has a slope of change of 0.02±0.21 compared to 0.53±0.05 in the control group (n=269, p=0.015). […]
Only MDS-UPDRS readings that were obtained when the participants were not yet taking a PD medication or were in the practically defined OFF state (at least 6 hours after the last dose of levodopa or any other anti-PD medication) were utilized for this analysis. […]

With `COc1cc2nc(N3CCN(C(=O)C4CCCO4)CC3)nc(N)c2cc1OC` (centres unmarked) [TZ, terazosin] the wing posture defects (PINK1^5 flies) was “partially reversed”, the “rate of motor function decline / progression of motor disability” value (patients with PD) was “slower” and the “MDS-UPDRS Part 3 Slope of change/month, mean ± S.E.” value (patients with PD) was 0.01 ± 0.25.
In the case of `CCOc1ccccc1OCCN[C@H](C)Cc1ccc(OC)c(S(N)(=O)=O)c1` [tamsulosin], the “rate of motor function decline / progression of motor disability” value (patients with PD) is reported as “failed to slow” and the “MDS-UPDRS Part 3 Slope of change/month, mean ± S.E.” value (patients with PD) is reported as 0.39 ± 0.14.
